The values below come from patent publication US20210214341A1, “SUBSTITUTED PYRIDINYL AZETIDINONE DERIVATIVES FOR USE IN TREATING CANCER AND OTHER DISEASES” (The Board of Regents of the University of Texas System, priority 2018, published 2021).

One test concerns HPAF-II. Kind of test: Cytotoxicity IC50 in HPAF-II cells. The class given is cell-based. To be noted: Homo sapiens; HPAF-II cell line; read-out: IC50 (mean ± standard error). From the text:
(§1) B. Cytotoxicity Studies: Determination of IC50 Values (Single Run) in Capan-2, HPAC. HPAF-II, and HS766T Cell Lines
(§2) Capan-2, HPAC. HPAF-H, and HS766T. The compounds A, D, E, G, and H were chosen randomly, out of twelve β-laclam molecules, to carry out this evaluation.

In a further test the test system is HS 766T. The experiment in a line: Cytotoxicity IC50 in HS 766T cells. It is filed as cell-based. To be noted: Homo sapiens, Hs766T; HS 766T cell line; read-out: IC50 (mean ± standard error).
From the text: as §1, §2

For test [1], the system named is pancreatic cancer cells PANC-1 (ATCC CRL-1469). Kind of test: SRB (Sulforhodamine B) assay in PANC-1 cells. It is filed as cell-based. The following applies: Homo sapiens, PANC-1. On the procedure:
(§3) FIGS. 1A-1B show the IC50 curves of the twelve investigational β-lactams in pancreatic cancer cells PANC-1 (ATCC CRL-1469) and normal pancreatic ductal epithelial cells (ATCC CRL-4038). The GraphPad Prism software was used to process the results. The IC50 values were determined by SRB (Sulforhodamine B) assay following standard procedure. PANC-1 cells were plated in 96 well plates and treated with 1, 10, 100, 1000 and 10,000 nM of each of the drugs in triplicate for 72 hrs. Cells were fixed, washed and stained with SRB dye, the stained cells were washed, and the dye solubilized. It was read using a plate reader at 565 nm. The IC50 values were calculated assuming that the 10 μM sample has reached saturation. Following similar way, IC50 values were determined for normal pancreatic ductal epithelial cells.
(§4) As mentioned earlier, PANC-1 is referred to generically as the “gold standard of pancreatic cancers” representing as it does almost total resistance to GEM, the first line treatment currently used in clinical situations. Pancreatic cancer cells PANC-1 (ATCC CRL-1469) and normal pancreatic ductal epithelial cells (ATCC CRL-4038) were used in this study. The GraphPad Prism software was used to process the results. […] Cells were fixed, washed and stained with SRB dye, the stained cells were washed, and the dye solubilized. It was read using a plate reader at 565 nm. The IC50 values were calculated assuming that the 10 μM sample has reached saturation. Following similar way, IC50 values were determined for normal pancreatic ductal epithelial cells.

Test [2] concerns normal pancreatic ductal epithelial cells (ATCC CRL-4038). Kind of test: SRB (Sulforhodamine B) assay in normal pancreatic ductal epithelial cells. The class given is cell-based. To be noted: Epithelial cell; 2D-culture, SRB, average of 3 runs; read-out: IC50 (NPC). On the procedure: as §3, §4
For test [3], the system named is PANC-1 cells. The experiment in a line: Annexin V assay to determine apoptosis. The class given is cell-based, human. To be noted: 0.5, 1, and 2 μM, 16 hrs. On the procedure: Cell death was identified as apoptosis through Annexin V assay. For this study, PANC-1, the most commonly known drug-resistance pancreatic cancer cell line was used. […] Error bars show standard deviation (n=3). For optimal throughput, final cell concentrations were maintained between 2×10^4 and 1×10^5 cells/well (or 1×10^5 to 5×10^5 cells/mL). Doxorubicin was used as control at a concentration of 5 μM for 16 hrs. For this study, PANC-1, the most commonly known drug-resistance pancreatic cancer cell lines were used. […] Error bars show standard deviation (n=3). For optimal throughput, final cell concentrations were maintained between 2×10^4 and 1×10^5 cells/well (or 1×10^5 to 5×10^5 cells/mL). Doxorubicin was used as a control at a concentration of 5 uM for 16 hrs (FIG. 5). Apoptosis was identified as the mechanism of cell death.

In test [4] the test system is Phospho-Histone H2A.X (Ser139) in PANC-1 cells. The experiment in a line: ICC-IF with Phospho-Histone H2A.X (Ser139) (γ-H2AX staining). The following applies: 1 μM, compared to control. It is filed as cell-based, human. From the text: This immunocytochemistry-immunofluorescence (ICC-IF) with Phospho-Histone H2A.X (Ser139) assay enables the quantitative detection of the histone variant H2AX, phosphorylated on serine 139. This modification serves as a sensitive biomarker for the detection of such breaks, localizing the site of DNA repair. Gamma-H2AX triggers cell cycle arrest and DNA damage response repair, and this assay is used to study genome stability, the cell cycle, DNA repair, and it serves as a biomarker for cancer and offers enhanced convenience over other immunoassay technologies. The PANC-1 cells were grown, treated with 1 μM concentration of the compound “D”, fixed and strained directly in chamber slides. Cells were submerged with blocking buffer for 60 min and then incubated with primary antibody Phospho-Histone H2A.X (Ser139) for overnight at 4° C. Then the cells were rinsed for three times in 1×PBS for 5 min each. The specimen was incubated in fluorochrome-conjugated secondary antibody diluted in antibody dilution buffer for 1-2 h at room temperature in the dark and then rinsed for three times in 1×PBS for 5 min each. […]
This assay was also performed with the compound D, prior to the determination of IC50 values in normal pancreatic ductal epithelial cell lines. This assay enables the quantitative detection of the histone variant H2AX, phosphorylated on serine 139. […]

Test [5] deals with PANC-1 cells. The experiment in a line: BrdU incorporation immunostaining. It is filed as cell-based, human. The following applies: compared to control. On the procedure: BrdU (5-bromo-2′-deoxyuridine) incorporation to proceed with immunostaining coverslip slides with Prolong® Gold Antifade reagent were visualized under microscope. Alexa Fluor® 488 (green) was used for BrdU staining along with nuclear marker DAPI (blue). BrdU images were co-localized with nuclear marker DAPI blue.
Diluted BrdU in fresh, pre-warmed growth medium to a final concentration of 0.03 mg/mL. This mixture was added to cells and incubated at 37° C. for 30 min. The medium was aspirated; cells were completely covered with 70% ethanol for 5 min. The fixative was aspirated and the cells were rinsed three times in 1×PBS for 5 min each. Therefore, 1.5 mL HCl and incubated for 30 min at room temperature. Then the HCl was aspirated and rinsed to times in 1×PBS for 5 min each. Subsequent proceeding for immunostaining followed the below steps: The cells were submerged with blocking buffer for 60 min and subsequently incubated with primary antibody (BrdU Mouse mAb) for overnight at 4° C. Therefore, the cells were rinsed three times in 1×PBS for 5 min each and incubated in fluorochrome-conjugated secondary antibody diluted in antibody dilution buffer for 1-2 h at room temperature in the dark and then rinsed for three times in 1×PBS for 5 min each. Coverslip slides with Prolong® Gold Antifade reagem were visualized under microscope. […]
(Uptake of a labelled nucleoside into DNA is a usual measure of proliferation.)

A further test deals with CaPan-2. The experiment in a line: Cytotoxicity IC50 in CaPan-2 cells. It is filed as cell-based. To be noted: Homo sapiens; CaPan-2 cell line; read-out: IC50 (mean ± standard error).
From the text: as §1, §2

The test system of a further test is HPAC. Kind of test: Cytotoxicity IC50 in HPAC cells. The class given is cell-based. To be noted: Homo sapiens; HPAC cell line; read-out: IC50 (mean ± standard error).
From the text: as §1, §2

In test [6] the test system is drug-resistant pancreatic cancer cell lines. Kind of test: IC50 against drug-resistant pancreatic cancer cell lines. The class given is cell-based. To be noted: Homo sapiens, range over cell lines.
The mark [7] stands for this setting: 2D-culture, SRB, 72 hrs, average of 3 runs, read-out: IC50 (PANC-1).

SMILES strings stand for the structures. Where two headings read alike, the source gives them in different places.

For orientation: IC50 means the concentration needed to halve the response being measured. `O=C1[C@@H](OS(=O)(=O)C2CCC2)[C@H](c2ccc(F)cn2)N1c1cc2c3ccccc3ccc2c2ccccc12` (racemic) [D, (±)-Trans-N-(chrysen-6-yl)-2-(5-fluoropyridin-2-yl)-4-oxoazetidin-3-yl cyclobutanesulfonate]: the IC50 was 1.39 ± 0.4 µM in the test on HPAF-II, 0.73 ± 0.4 µM in the test on HS 766T, 0.118 µM in test [1] (setting [7]) and 0.0608 µM in test [2]. For the same molecule, the “mechanism of cell death” value with PANC-1 cells [3] is “Apoptosis”. Moreover, the “γ-H2AX (phospho-H2AX) staining” value in test [4] was “positive staining”. Besides, the “rate of DNA replication and subsequent cell proliferation (BrdU incorporation)” value in the test on PANC-1 cells [5] is given as “significantly low”.
In the case of `Nc1ccn([C@@H]2O[C@H](CO)[C@@H](O)C2(F)F)c(=O)n1` [Gemcitabine, reference compound], the IC50 in the test on CaPan-2 was more than 50 µM; in the test with HPAC it was more than 50 µM; with HPAF-II, more than 50 µM; in the test with HS 766T, 16.3 ± 0.6 µM; in [1] (setting [7]), 37.9 µM; in test [1] (in vitro, triplicate, read-out: PANC-1 cell lines IC50) it was 37.9 µM. This molecule also displayed a concentration for half-maximal inhibition (IC50) in [6] not below 16 µM.
